Experimental data published in patent US10688093B2, “Methods, compositions, and uses of novel Fyn kinase inhibitors” (priority 2015, dated 2020).

Target: full-length recombinant human FYN A (Homo sapiens (Human), UniProt P06241)
Assay: ADP-Glo Kinase Assay of FYN kinase inhibition
Type: biochemical
Conditions: primary screen, initial compounds
Summary of the method: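 GST-tagged full-length FYN A (baculovirus, Sf9) at 3 pg preincubated 30 min RT with compound (10-point 3-fold series from 10 μM) in Tris pH 7.5/MgCl2 buffer. 12-mer tyrosine peptide plus 12.5 pmol ATP added, 90 min RT; ADP measured by ADP-Glo luminescence, IC50 from dose-response.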

Sequence of full-length recombinant human FYN A (P06241 whole entry): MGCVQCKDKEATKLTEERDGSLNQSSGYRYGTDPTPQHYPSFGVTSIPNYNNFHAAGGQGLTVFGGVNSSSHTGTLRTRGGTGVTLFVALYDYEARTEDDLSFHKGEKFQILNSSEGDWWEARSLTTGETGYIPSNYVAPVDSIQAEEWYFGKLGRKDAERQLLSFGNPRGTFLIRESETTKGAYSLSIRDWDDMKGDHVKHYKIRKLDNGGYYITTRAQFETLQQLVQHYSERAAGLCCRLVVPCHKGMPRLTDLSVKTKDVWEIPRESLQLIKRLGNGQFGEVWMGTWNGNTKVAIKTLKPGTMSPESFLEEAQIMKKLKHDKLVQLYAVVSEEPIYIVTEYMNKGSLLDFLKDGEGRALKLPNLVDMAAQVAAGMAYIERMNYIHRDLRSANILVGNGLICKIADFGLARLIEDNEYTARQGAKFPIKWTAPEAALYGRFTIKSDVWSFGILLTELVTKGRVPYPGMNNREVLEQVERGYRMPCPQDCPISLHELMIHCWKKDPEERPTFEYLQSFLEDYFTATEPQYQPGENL

Compound | IC50 [µM]
CNc1ccc2ncc(/C=C\CCCO)n2n1 [Compound 542, (Z)-5-[6-(methylamino)imidazo[1,2-b]pyridazin-3-yl]pent-4-en-1-ol] | 31.5
COc1cc(-c2cnc3sc(NCC4CCOCC4)nn23)ccc1O [Compound 543, 2-methoxy-4-[2-(tetrahydropyran-4-ylmethyl-amino)imidazo [2,1-b][1,3,4]thiadiazo-5-yl]phenol] | 2.16
COc1ccc(-c2cnc3c(NC(C)=O)cc(-c4cccc(NC(C)=O)c4)cn23)cc1OC [Compound 544, N-[3-[8-acetamido-3-(3,4-dimethoxy-phenyl)imidazo [1,2-a]pyridin-6-yl]phenyl] acetamide] | 1.6
COc1cccc(-c2cc(NC(C)=O)c3ncc(-c4cccc(C(C)=O)c4)n3c2)c1 [Compound 545, N-[3-(3-acetylphenyl)-6-[3-methoxy-phenyl)imidazo [1,2-a]pyridin-8-yl]acetamide] | 3.05
COc1cncc(-c2cnc3sc(NCc4ccncc4)nn23)c1 [Compound 546, 5-(5-methoxy-3-pyridyl)-N-(4-pyridylmethyl) imidazo[2,1-b][1,3,4] thiadiazol-2-amine] | 0.932
OC1CCC(Nc2nn3c(-c4ccc(F)c(Cl)c4)cnc3s2)CC1 (stereo not shown) [Compound 547, 4-[[5-(3-chloro-4-fluoro-phenyl)imidazo [2,1-b][1,3,4]thiadiazol-2-yl]amino] cyclohexanol] | 4.06
COc1ccc(-c2cnc3sc(NCCc4ccc(S(N)(=O)=O)cc4)nn23)cc1OC [Compound 548, 4-[2-[[5-(3,4-dimethoxyphenyl)imidazo[2,1-b] [1,3,4]thiadiazol-2-yl]amino]ethyl]benzene-sulfonamide] | 5.12
COc1ccc(-c2cc(NC(C)=O)c3ncc(-c4cccc(C(C)=O)c4)n3c2)c(OC)c1 [Compound 549, N-[3-(3-acetylphenyl)-6-(2,4-dimethoxy-phenyl)imidazo [1,2-a]pyridin-8-yl]acetamide] | 2.5
COc1ccc(-c2cnc3sc(NCCc4ccncc4)nn23)cc1OC [Compound 550, 5-(3,4-dimethoxy-phenyl)-N-[2-(4-pyridyl)ethyl]imidazo [2,1-b][1,3,4] thiadiazol-2-amine] | 3.14
c1cc(CNc2nn3c(-c4ccncc4)cnc3s2)ccn1 [Compound 551, 5-(4-pyridyl)-N-(4-pyridylmethyl) imidazo[2,1-b] [1,3,4]thiadiazol-2-amine] | 2.65
COc1ccc(-c2cnc3sc(NCCc4ccncc4)nn23)cn1 [Compound 552, 5-(6-methoxy-3-pyridyl)-N-[2-(4-pyridyl)ethyl] imidazo[2,1-b] [1,3,4]thiadiazol-2-amine] | 2.03
NS(=O)(=O)c1ccc(CCNc2nn3c(-c4cccnc4)cnc3s2)cc1 [Compound 553, 4-[2-[[5-(3-pyridyl)imidazo [2,1-d][1,3,4]thiadiazol-2-yl]amino]ethyl] benzene-sulfonamide] | 1.88
c1csc(CNc2nn3c(-c4ccc(N5CCOCC5)cc4)cnc3s2)c1 [Compound 554, 5-(4-morpholino-phenyl)-N-(2-thienylmethyl) imidazo[2,1-b] [1,3,4]thiadiazol-2-amine] | 3.82
COc1ccc(CNc2nn3c(-c4ccc(CO)cc4)cnc3s2)cc1 [Compound 555, [4-[2-[(4-methoxyphenyl)methylamino]imidazo[2,1-b] [1,3,4]thiadiazol-5-yl]phenyl] methanol] | 2.81
Clc1ccc(-c2cnc3sc(NCc4cccnc4)nn23)cc1 [Compound 556, 5-(4-chlorophenyl)-N-(3-pyridylmethyl) imidazo[2,1-b] [1,3,4]thiadiazol-2-amine] | 3.66
CC(=O)Nc1cccc(-c2cnc3sc(NCCc4ccncc4)nn23)c1 [Compound 557, N-[3-[2-[2-(4-pyridyl)ethyl-amino]imidazo [2,1-b][1,3,4]thiadiazol-5-yl]phenyl] acetamide] | 1.32
CN(C)C(=O)c1cccc(-c2cnc3sc(NCCc4ccncc4)nn23)c1 [Compound 558, N,N-dimethyl-3-[2-[2-(4-pyridyl)ethyl-amino]imidazo [2,1-b][1,3,4]thiadiazol-5-yl]benzamide] | 0.721
COc1ccc(CNc2nn3c(-c4ccc(O)c(OC)c4)cnc3s2)cc1 [Compound 559, 2-methoxy-4-[2-[(4-methoxy-phenyl)methyl-amino]imidazo [2,1-b][1,3,4]thiadiazol-5-yl]phenol] | 1.78
COc1ccc(-c2cnc3sc(NCc4cccnc4)nn23)cn1 [Compound 560, 5-(6-methoxy-3-pyridyl)-N-(3-pyridylmethyl) imidazo[2,1-b] [1,3,4]thiadiazol-2-amine] | 2.94
Fc1ccc(-c2cnc3sc(NCCN4CCOCC4)nn23)cc1Cl [Compound 561, 5-(3-chloro-4-fluoro-phenyl)-N-(2-morpholino-ethyl)imidazo [2,1-b][1,3,4] thiadiazol-2-amine] | 4.82
c1cc(CCNc2nn3c(-c4ccncc4)cnc3s2)ccn1 [Compound 562] | 2.43
COc1ccc(-c2cnc3sc(NC4CCC(O)CC4)nn23)cn1 (stereo not shown) [Compound 563, 4-[[5-(6-methoxy-3-pyridyl)imidazo[2,1-b] [1,3,4]thiadiazol-2-yl]amino] cyclohexanol] | 1.61

Compound | IC50 [µM]
CC(=O)c1ccc(-c2cnc3sc(NCCN4CCOCC4)nn23)s1 [Compound 564, 1-[5-[2-(2-morpholinoethyl-amino)imidazo [2,1-b][1,3,4]thiadiazol-5-yl]-2-thienyl] ethanone] | 3
COc1ccccc1-c1cc(NC(C)=O)c2ncc(-c3cccc(C(C)=O)c3)n2c1 [Compound 565, N-[3-(3-acetylphenyl)-6-[2-methoxy-phenyl)imidazo [1,2-a]pyridin-8-yl]acetamide] | 1.58
CS(=O)(=O)Nc1cccc(-c2cc(NC=O)c3ncc(-c4ccc(F)c(Cl)c4)n3c2)c1 [Compound 566, N-[3-(3-chloro-4-fluoro-phenyl)-6-[3-(methane-sulfonamido)phenyl]imidazo [1,2-a]pyridin-8-yl]formamide] | 2.86
c1csc(CNc2nn3c(-c4ccncc4)cnc3s2)c1 [Compound 567, 5-(4-pyridyl)-N-(2-thienylmethyl) imidazo[2,1-b] [1,3,4]thiadiazol-2-amine] | 3.62
CS(=O)(=O)Nc1cccc(-c2cnc3sc(NC4CCCCC4)nn23)c1 [Compound 568, N-[3-[2-(cyclohexylamino)imidazo[2,1-b] [1,3,4]thiadiazol-5-yl]phenyl] methane-sulfonamide] | 4.33
CC(C)CNc1nn2c(-c3cccc(C(N)=O)c3)cnc2s1 [Compound 569, 3-[2-(isobutylamino)imidazo[2,1-b] [1,3,4]thiadiazol-5-yl]benzamide] | 1.13
OC1CCC(Nc2nn3c(-c4cccc(F)c4)cnc3s2)CC1 (stereo not shown) [Compound 571, 4-[[5-(3-fluorophenyl)imidazo[2,1-b] [1,3,4]thiadiazol-2-yl]amino] cyclohexanol] | 2.92
COc1ccc(-c2cnc3sc(NC4CCC(O)CC4)nn23)cc1OC (stereo not shown) [Compound 572, 4-[[5-(3,4-dimethoxyphenyl)imidazo[2,1-b] [1,3,4]thiadiazol-2-yl]amino] cyclohexanol] | 0.483
c1cncc(-c2cnc3sc(NCc4cccs4)nn23)c1 [Compound 573, 5-(3-pyridyl)-N-(2-thienylmethyl) imidazo[2,1-b] [1,3,4]thiadiazol-2-amine] | 1.94
COc1ccc(-c2cnc3sc(NCc4ccncc4)nn23)cc1OC [Compound 574, 5-(3,4-dimethoxy-phenyl)-N-(4-pyridylmethyl) imidazo[2,1-b] [1,3,4]thiadiazol-2-amine] | 2.13
CC(=O)Nc1cc(-c2ccc(N)cc2)cn2c(-c3ccc(F)cc3)cnc12 [Compound 575, N-[6-(4-aminophenyl)-3-(4-fluorophenyl)imidazo[1,2-a]pyridin-8-yl]acetamide] | 5.25
Cn1cc(-c2cc(NC=O)c3ncc(-c4ccc(F)cc4)n3c2)cn1 [Compound 576, N-[3-(4-fluorophenyl)-6-(1-methylpyrazol-4-yl)imidazo[1,2-a]pyridin-8-yl]formamide] | 8.09
COc1cccc(-n2c(N)c(C(N)=O)c3nc4ccccc4nc32)c1 [Compound 577, 2-amino-1-(3-methoxyphenyl) pyrrolo[3,2-b]quinoxaline-3-carboxamide] | 1.18
Fc1cccc(-c2cnc3sc(NC4CCCCC4)nn23)c1 [Compound 578, N-cyclohexyl-5-(3-fluorophenyl) imidazo[2,1-d] [1,3,4]thiadiazol-2-amine] | 4.08
c1cncc(-c2cnc3sc(NCc4ccco4)nn23)c1 [Compound 579, N-(2-furylmethyl)-5-(3-pyridyl)imidazo [2,1-a][1,3,4] thiadiazol-2-amine] | 3.16
Cn1cc(-c2cnc3sc(NCc4ccco4)nn23)cn1 [Compound 580, N-(2-furylmethyl)-5-(1-methylpyrazol-4-yl)imidazo [2,1-b][1,3,4] thiadiazol-2-amine] | 5.64
COc1cncc(-c2cnc3sc(NCc4cccs4)nn23)c1 [Compound 581, 5-(5-methoxy-3-pyridyl)-N-(2-thienylmethyl) imidazo[2,1-b] [1,3,4]thiadiazol-2-amine] | 0.729
COc1ccc(-c2cnc3sc(NCC(C)C)nn23)cc1OC [Compound 582, 5-(3,4-dimethoxy-phenyl)-N-isobutyl-imidazo [2,1-b][1,3,4] thiadiazol-2-amine] | 2.75
CC(=O)c1cccc(-c2cnc3sc(NCC(C)C)nn23)c1 [Compound 583, 1-[3-[2-(isobutyl-amino)imidazo [2,1-a][1,3,4]thiadiazol-5-yl]phenyl] ethanone] | 15.1
c1ccc(CNc2nn3c(-c4cccnc4)cnc3s2)cc1 [Compound 584, N-benzyl-5-(3-pyridyl)imidazo [2,1-b][1,3,4] thiadiazol-2-amine] | 0.839
COc1cncc(-c2cnc3sc(NCc4ccccc4)nn23)c1 [Compound 585, N-benzyl-5-(5-methoxy-3-pyridyl)imidazo [2,1-b][1,3,4] thiadiazol-2-amine] | 0.343
